Results published in patent publication US7728032B2, “Phenoxymethylalkyne inhibitors of LTA4H for treating inflammation” (deCODE genetics ehf, priority 2006, dated 2010).
Where a name gives a salt, the structure may show the parent alone. Read-outs that look alike come from different tables or passages of the source.

How the values were obtained:
[1] = target: T1, recombinant human LTA4 hydrolase (Homo sapiens, UniProt P09960); test: In vitro assay testing inhibitory activity against purified recombinant human LTA4 hydrolase; type: biochemical; conditions: 200 nM recombinant enzyme, 2 μM LTA4, 120 sec, LTB4 formed measured by LC-MS/MS
T1 construct: A human LTA4 hydrolase full-length cDNA clone (NM_000895) was purchased from OriGene Technologies; 6xHis (own knowledge: pDEST17 adds an N-terminal His tag); made in house; host or cells: Escherichia coli BL21-AI
T1 sequence (P09960 1-611): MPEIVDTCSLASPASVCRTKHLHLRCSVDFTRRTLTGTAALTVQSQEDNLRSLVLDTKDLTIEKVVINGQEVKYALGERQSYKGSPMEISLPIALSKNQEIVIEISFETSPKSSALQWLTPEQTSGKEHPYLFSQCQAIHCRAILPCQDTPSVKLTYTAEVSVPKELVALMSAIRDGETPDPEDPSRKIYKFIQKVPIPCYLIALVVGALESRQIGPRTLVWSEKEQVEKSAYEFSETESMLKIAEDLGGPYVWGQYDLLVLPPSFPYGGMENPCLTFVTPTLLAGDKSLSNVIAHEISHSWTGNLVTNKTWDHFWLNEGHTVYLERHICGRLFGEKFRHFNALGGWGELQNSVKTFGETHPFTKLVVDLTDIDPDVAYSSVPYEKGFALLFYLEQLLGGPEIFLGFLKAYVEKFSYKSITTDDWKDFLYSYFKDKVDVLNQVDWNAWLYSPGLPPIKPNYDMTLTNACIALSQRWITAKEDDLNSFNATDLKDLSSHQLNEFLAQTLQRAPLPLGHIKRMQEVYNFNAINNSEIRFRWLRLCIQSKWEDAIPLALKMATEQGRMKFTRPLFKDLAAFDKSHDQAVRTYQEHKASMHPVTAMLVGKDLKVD
Text: (1) In vitro assay testing inhibitory activity against purified recombinant human LTA4 hydroase:
A human LTA4 hydrolase full-length cDNA clone (NM_000895) was purchased from OriGene Technologies (Rockville, Md.). The gene was amplified by polymerase chain reaction and transferred via pDONR201 into the bacterial expression vector pDEST17 by recombination (both plasmids from Invitrogen, Carlsbad, Calif.). The resulting construct was transformed into Escherichia coli BL21-AI (Invitrogen), and expression was induced by chemical induction with arabinose. The recombinant enzyme was purified by chromatography on a FPLC system (Amersham Biosciences, Uppsala, Sweden) using immobilized metal affinity chromatography (Ni-NTA Superflow, Qiagen, Hilden, Germany) and anion exchange chromatography (MonoQ HR 10/10, Amersham Biosciences).
The compounds of the invention were incubated in a series of dilutions with 200 nM of recombinant enzyme in assay buffer (100 mM Tris-HCl, 100 mM NaCl, 5 mg/ml fatty-acid free BSA, 10% DMSO, pH 8.0) for 10 min at room temperature to allow binding between LTA4 hydrolase and the inhibitors. LTA4 was prepared by alkaline hydrolysis of LTA4 methyl ester (Biomol, Plymouth Meeting, Pa., or Cayman Chemicals, Ann Arbor, Mich.). A solution of 10 μg of the ester was dried under a nitrogen stream and redissolved in 60 μl of a solution of 80% aceton and 20% 0.25 M NaOH. After incubation for 40 min at room temperature the resulting approximately 500 μM tock of LTA4 was kept at −80° C. for no more than a few days prior to use.
Immediately before the assay, LTA4 was diluted to a concentration of 10 μM in assay buffer (without DMSO) and added to the reaction mixture to a final concentration of 2 μM to initiate the enzyme reaction. After incubation for 120 sec at room temperature, the reaction was stopped by adding 2 volumes of chilled quenching buffer, containing acetonitril with 1% acetic acid and 225 nM LTB4-d4 (Biomol). The samples were then kept at 4° C. over night to complete protein precipitation and centrifuged for 15 min at 1800 g. LTB4 formed was measured by LC-MS/MS using LTB4-d4 as an internal standard and an external LTB4 standard (Biomol) as reference. Briefly, the analyte was separated from LTB4 isomers formed by spontaneous hydrolysis of LTA4 using isocratic elution (modified protocol from Mueller et al. (1996), J. Biol. Chem. 271, 24345-24348) on a HPLC system (Waters, Milford, Mass.) and analyzed on a tandem quadrupole mass spectrometer (Waters). MRM transitions followed on 2 channels were 335.2>195.3 (LTB4) and 339.2>197.3 (LTB4-d4). Based on the amounts of LTB4 found at each inhibitor concentration, a dose-response curve was fitted to the data and an IC50 value was calculated.

[2] = test system: ionophore-induced LTB4 production; conditions: oral administration, mouse blood ex vivo; cited from earlier work
[3] = test system: ionophore-induced LTB4 production; conditions: oral administration, rat peritoneum in vivo; cited from earlier work
[4] = test system: spontaneous colitis; conditions: eight weeks of treatment, primate model; cited from earlier work

| IC50 [1] | Compound | further results |
| --- | --- | --- |
| 5 to 20 µM | C#CCOc1ccc(OC[C@H]2CCCN2)cc1 [Example 1, (R)-2-(4-Prop-2-ynyloxy-phenoxymethyl)-pyrrolidine hydrochloride] |  |
| < 5 µM | C(#Cc1ccccc1)COc1ccc(OC[C@H]2CCCN2)cc1 [Example 2, 2-[4-(3-Phenyl-prop-2-ynyloxy)-phenoxymethyl]-pyrrolidine] |  |
| 5 to 20 µM | Brc1ccc(C#CCOc2ccc(OC[C@H]3CCCN3)cc2)cc1 [Example 4, 2-{4-[3-(4-Bromo-phenyl)-prop-2-ynyloxy]-phenoxymethyl}-pyrrolidine hydrochloride] |  |
| 5 to 20 µM | CC#CCOc1ccc(OCCN2CCCCC2)cc1 [Example 6, 1-[2-(4-But-2-ynyloxy-phenoxy)-ethyl]-piperidine] |  |
|  | CN(CCCOc1ccc(Cc2ccccc2)cc1)CCC(=O)O.Cl [SC57461] | inhibition of ionophore-induced LTB4 production [2]: inhibition; inhibition of ionophore-induced LTB4 production [3]: inhibition; colitis symptoms [4]: significantly improved |

| Compound | IC50 [1] | further results |
| --- | --- | --- |
| (4-{3-[4-(Pyrrolidin-2-ylmethoxy)-phenoxy]-prop-1-ynyl}-phenyl)-methanol [Example 3] | < 5 µM |  |
